One data set concerns the target T1, DRAK1(h) (Homo sapiens, UniProt Q9UEE5).
T1 construct: gene STK17A
T1 sequence (Q9UEE5 1-414): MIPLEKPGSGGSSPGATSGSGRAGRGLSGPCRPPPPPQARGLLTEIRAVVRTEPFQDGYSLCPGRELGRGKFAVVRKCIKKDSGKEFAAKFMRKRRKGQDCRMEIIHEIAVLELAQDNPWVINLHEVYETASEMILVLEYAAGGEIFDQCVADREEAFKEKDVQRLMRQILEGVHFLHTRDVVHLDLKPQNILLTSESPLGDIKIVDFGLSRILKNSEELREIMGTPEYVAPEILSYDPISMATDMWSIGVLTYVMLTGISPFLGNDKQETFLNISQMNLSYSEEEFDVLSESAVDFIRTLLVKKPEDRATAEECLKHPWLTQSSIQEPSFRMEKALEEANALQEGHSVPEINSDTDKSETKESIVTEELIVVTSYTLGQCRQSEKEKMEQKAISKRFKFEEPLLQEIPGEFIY
Nature of the data set: biochemical. Set-up: In vitro kinase panel profiling, per cent remaining kinase activity at 10 uM. To be noted: atp_concentration=10, read-out: % of control remaining. An excerpt:
(§1) We derisk potential for off-target activity by profiling the compound in a CEREP panel, a standard secondary pharmacology assessment, as well as a kinase panel to derisk a potential hinge-binding motif in our leads, and a PARP panel to derisk activity against human […]. Reassuringly, the compounds are selective, with the only off-targets being moderate human CHRM2 and KOR receptors activity associated with ASAP-0011198.

For another data set, the target named is T2, PKCθ(h) (Homo sapiens, UniProt Q04759).
T2 construct: gene PRKCQ
Nature of the data set: biochemical. Set-up: In vitro kinase panel profiling, per cent remaining kinase activity at 10 uM. To be noted: atp_concentration=15, read-out: % of control remaining.
Excerpt: as §1

The target of another data set is T3, ASK1(h) (Homo sapiens, UniProt Q99683).
T3 construct: gene MAP3K5
T3 sequence (Q99683 1-1374): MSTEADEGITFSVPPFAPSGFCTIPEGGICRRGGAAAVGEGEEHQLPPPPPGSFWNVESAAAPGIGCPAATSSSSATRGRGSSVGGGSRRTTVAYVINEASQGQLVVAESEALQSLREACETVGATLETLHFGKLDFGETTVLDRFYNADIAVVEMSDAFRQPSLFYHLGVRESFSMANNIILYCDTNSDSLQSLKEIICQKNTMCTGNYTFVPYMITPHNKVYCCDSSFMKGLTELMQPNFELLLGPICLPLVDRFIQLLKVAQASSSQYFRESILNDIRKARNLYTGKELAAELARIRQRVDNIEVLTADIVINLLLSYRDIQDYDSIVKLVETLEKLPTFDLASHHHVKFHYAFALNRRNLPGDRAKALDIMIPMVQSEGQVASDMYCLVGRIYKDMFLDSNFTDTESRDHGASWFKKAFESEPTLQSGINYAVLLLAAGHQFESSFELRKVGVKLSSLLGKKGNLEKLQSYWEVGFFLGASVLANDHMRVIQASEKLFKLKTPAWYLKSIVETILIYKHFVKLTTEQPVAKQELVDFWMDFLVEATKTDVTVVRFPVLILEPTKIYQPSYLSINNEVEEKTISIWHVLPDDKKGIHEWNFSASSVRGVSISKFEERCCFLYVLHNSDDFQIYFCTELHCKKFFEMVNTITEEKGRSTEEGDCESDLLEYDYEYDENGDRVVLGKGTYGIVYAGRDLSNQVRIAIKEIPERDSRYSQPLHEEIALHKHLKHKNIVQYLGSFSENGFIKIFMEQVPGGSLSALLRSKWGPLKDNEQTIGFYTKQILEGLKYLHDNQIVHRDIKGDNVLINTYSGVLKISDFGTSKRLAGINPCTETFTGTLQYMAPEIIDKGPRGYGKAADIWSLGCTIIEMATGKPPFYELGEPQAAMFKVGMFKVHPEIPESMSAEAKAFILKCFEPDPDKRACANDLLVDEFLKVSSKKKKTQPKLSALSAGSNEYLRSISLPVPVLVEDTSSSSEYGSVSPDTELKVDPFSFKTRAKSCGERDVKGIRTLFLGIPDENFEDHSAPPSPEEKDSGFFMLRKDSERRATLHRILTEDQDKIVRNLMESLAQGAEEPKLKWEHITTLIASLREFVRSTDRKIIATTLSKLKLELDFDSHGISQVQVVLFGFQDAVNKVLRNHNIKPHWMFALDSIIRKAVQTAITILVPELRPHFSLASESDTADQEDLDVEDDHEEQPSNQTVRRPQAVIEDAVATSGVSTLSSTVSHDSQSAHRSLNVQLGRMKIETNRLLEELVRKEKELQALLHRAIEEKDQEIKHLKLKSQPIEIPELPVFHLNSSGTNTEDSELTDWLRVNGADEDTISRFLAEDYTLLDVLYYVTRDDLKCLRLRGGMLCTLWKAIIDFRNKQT
Nature of the data set: biochemical. To be noted: atp_concentration=200, read-out: % of control remaining. Set-up: In vitro kinase panel profiling, per cent remaining kinase activity at 10 uM.
Excerpt: as §1

The target in a further data set is CDK6/cyclinD3(h) (Homo sapiens, UniProt Q00534). Nature of the data set: biochemical. To be noted: atp_concentration=200, read-out: % of control remaining. Also on record: In vitro kinase panel profiling, per cent remaining kinase activity at 10 uM.
Excerpt: as §1

Data set [1] is described as follows: In vitro rat hepatocyte stability. The class given is in vitro ADME. The source says: Supplement media-1.zip/Hepatocyte_Stability.csv, table | column: clint; t_half
Another data set has as its target T4, H1 (h) (Homo sapiens, UniProt P35367).
T4 construct: purchased Eurofins Cerep (SafetyScreen44), recognised from the panel format
Nature of the data set: In vitro CEREP profiling, H1 (h) (antagonist radioligand). The class given is binding. To be noted: test compound concentration 10 uM. An excerpt:
(§2) Supplement media-1.zip/Safety_Panel_Profile.csv, table | column: perc_inhibition

For a further data set, the target named is T5, KOR receptor (Homo sapiens, UniProt P41145).
T5 construct: purchased Eurofins Cerep (SafetyScreen44), recognised from the panel format
Nature of the data set: Eurofins CEREP panel, KOR. It is filed as binding. To be noted: kappa (h) (KOP) (agonist radioligand); test compound concentration 10 uM.

The target of another data set is T6, Lck kinase (h) (Homo sapiens, UniProt P06239).
T6 construct: purchased Eurofins Cerep (SafetyScreen44), recognised from the panel format
Nature of the data set: In vitro CEREP profiling, Lck kinase (h). The class given is biochemical. To be noted: test compound concentration 10 uM; Enzyme and Cell-based assays.
Excerpt: as §2

A further data set concerns the target T7, beta1 (h) (Homo sapiens, UniProt P08588).
T7 construct: purchased Eurofins Cerep (SafetyScreen44), recognised from the panel format
Nature of the data set: In vitro CEREP profiling, beta1 (h) (agonist radioligand). The class given is binding. To be noted: test compound 10 uM.
Excerpt: as §2

Read-outs that look alike come from different tables or passages of the source.

The source of these data is doi:10.1101/2024.08.19.608619, “Discovery of potent SARS-CoV-2 nsp3 macrodomain inhibitors uncovers lack of translation to cellular antiviral response” (bioRxiv, 2024).

T7 sequence (P08588 whole entry): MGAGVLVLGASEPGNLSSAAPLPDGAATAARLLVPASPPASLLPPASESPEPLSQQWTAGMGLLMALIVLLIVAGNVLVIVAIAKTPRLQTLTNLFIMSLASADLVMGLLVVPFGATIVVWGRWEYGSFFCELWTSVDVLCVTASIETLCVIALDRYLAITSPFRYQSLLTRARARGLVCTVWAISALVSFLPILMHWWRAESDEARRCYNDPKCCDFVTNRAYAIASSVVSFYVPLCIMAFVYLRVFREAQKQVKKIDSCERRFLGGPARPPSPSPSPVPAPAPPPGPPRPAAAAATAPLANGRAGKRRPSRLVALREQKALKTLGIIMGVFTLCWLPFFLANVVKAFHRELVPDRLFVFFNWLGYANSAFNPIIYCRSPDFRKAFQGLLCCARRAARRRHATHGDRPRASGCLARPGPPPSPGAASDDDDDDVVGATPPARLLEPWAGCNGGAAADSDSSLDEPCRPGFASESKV
T5 sequence (P41145 whole entry): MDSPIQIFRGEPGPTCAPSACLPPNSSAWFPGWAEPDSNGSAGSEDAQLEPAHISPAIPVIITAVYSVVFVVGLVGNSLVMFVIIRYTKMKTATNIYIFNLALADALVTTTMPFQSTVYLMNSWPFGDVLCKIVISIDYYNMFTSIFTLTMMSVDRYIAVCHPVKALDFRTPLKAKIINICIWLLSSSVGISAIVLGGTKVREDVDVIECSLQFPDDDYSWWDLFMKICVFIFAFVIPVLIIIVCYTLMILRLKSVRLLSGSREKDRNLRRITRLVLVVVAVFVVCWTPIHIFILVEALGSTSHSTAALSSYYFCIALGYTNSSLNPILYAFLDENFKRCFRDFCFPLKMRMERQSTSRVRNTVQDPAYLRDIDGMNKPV
T6 sequence (P06239 whole entry): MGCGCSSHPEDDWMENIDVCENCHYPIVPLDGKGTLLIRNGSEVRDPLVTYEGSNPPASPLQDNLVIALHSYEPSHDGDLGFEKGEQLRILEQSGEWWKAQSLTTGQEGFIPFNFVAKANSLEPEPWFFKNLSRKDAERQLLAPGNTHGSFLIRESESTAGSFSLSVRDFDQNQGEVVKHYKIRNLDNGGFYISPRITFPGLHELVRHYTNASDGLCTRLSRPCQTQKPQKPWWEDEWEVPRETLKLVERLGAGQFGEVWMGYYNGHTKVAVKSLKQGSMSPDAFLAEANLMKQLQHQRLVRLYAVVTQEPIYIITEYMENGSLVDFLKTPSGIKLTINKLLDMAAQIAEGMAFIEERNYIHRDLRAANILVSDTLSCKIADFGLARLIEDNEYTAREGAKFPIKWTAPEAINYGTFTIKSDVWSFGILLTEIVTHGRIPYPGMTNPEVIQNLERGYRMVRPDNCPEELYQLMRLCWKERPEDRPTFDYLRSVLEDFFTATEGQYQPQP
T4 sequence (P35367 whole entry): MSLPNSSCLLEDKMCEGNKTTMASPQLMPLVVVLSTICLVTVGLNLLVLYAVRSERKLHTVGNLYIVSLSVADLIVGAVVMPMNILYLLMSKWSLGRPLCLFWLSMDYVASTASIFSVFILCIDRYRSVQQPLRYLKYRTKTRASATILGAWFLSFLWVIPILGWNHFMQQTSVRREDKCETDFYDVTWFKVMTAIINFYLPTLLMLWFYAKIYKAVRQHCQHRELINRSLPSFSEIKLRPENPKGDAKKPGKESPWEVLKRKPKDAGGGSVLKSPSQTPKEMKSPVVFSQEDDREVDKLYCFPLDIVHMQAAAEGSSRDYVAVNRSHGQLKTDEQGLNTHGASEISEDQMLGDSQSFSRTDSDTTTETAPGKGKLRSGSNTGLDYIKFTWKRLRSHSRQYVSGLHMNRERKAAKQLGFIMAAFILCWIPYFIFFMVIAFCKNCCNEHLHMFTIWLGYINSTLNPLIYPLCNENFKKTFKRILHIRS
T2 sequence (Q04759 whole entry): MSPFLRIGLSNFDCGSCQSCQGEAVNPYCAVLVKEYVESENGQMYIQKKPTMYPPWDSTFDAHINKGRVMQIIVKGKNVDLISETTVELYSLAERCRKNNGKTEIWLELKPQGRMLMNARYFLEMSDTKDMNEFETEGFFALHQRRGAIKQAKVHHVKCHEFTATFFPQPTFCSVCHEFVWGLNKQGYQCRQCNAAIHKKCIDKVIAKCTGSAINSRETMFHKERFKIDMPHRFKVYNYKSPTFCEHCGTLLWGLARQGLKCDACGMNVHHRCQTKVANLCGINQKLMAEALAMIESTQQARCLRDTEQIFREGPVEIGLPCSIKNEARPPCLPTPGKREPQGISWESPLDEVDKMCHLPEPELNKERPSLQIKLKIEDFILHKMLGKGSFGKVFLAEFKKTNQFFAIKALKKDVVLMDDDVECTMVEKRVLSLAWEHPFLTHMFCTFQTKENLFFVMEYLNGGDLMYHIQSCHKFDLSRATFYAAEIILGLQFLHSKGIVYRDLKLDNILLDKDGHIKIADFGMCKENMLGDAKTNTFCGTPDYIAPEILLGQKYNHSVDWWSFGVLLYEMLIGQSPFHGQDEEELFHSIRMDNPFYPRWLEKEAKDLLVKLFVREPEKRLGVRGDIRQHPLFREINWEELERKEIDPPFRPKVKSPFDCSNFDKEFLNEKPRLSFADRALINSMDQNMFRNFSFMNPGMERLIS
Sequence of CDK6/cyclinD3(h) (Q00534 whole entry): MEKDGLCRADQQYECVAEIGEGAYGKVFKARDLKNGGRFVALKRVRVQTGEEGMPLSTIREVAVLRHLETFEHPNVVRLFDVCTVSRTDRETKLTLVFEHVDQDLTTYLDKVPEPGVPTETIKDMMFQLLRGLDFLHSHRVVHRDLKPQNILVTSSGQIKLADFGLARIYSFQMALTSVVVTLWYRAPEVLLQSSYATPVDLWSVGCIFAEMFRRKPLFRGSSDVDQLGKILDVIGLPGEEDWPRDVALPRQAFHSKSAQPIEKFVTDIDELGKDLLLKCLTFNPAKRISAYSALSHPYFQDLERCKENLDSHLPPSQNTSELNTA
Sequence of CDK6/cyclinD3(h) (P30281 whole entry partner): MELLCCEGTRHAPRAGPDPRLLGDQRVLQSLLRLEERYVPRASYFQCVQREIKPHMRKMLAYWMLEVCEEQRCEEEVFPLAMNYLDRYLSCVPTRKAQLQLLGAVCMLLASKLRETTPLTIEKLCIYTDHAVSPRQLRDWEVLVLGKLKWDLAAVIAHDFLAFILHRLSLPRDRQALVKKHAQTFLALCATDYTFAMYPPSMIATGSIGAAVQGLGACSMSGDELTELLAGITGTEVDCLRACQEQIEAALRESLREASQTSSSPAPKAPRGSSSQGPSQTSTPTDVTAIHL

Turning to `CC(C)C(Nc1ncnc2[nH]ccc12)c1ccc2c(c1)S(=O)(=O)CCC2` (centres unmarked) [ASAP-0008327], the remaining activity at 10 µM at DRAK1(h) (batch_name=ASAP-0008327-001) is 96%; on PKCθ(h) (batch_name=ASAP-0008327-001), 101%; on ASK1(h) (batch_name=ASAP-0008327-001) it was 108%; on CDK6/cyclinD3(h) (batch_name=ASAP-0008327-001), 99%.

In the case of `COc1ccc([C@@H](Cc2nnn[nH]2)NC(=O)c2ncnc3[nH]ccc23)cc1` [ASAP-0008340], the remaining activity at 10 µM at DRAK1(h) (batch_name=ASAP-0008340-001) came out at 111%; at PKCθ(h) (batch_name=ASAP-0008340-001), 90%; on ASK1(h) (batch_name=ASAP-0008340-001), 101%; at CDK6/cyclinD3(h) (batch_name=ASAP-0008340-001), 100%.

For the compound `CC(C)[C@@H](Nc1ncnc2[nH]c(-c3cnn(C)c3C#N)cc12)c1ccc2c(n1)OCCO2` [ASAP-0008418], the remaining activity at 10 µM came to 101% at DRAK1(h) (batch_name=ASAP-0008418-001), 93% on PKCθ(h) (batch_name=ASAP-0008418-001) and 105% at CDK6/cyclinD3(h) (batch_name=ASAP-0008418-001).

`CC(C)[C@H](Nc1ncnc2[nH]c(-c3cnn(C)c3C#N)cc12)c1ccc2c(n1)OCCO2` [ASAP-0010715] showed a clint in [1] of 87.5 uL/min/1E6 cells. In [1], this compound displayed a t_half of 7.92 min. Besides, the “perc_inhibition (% inhibition of the binding of a ligand specific for each target)” value turned out to be 5% at H1 (h), 31% at KOR receptor and 11% at beta1 (h). The results for the remaining activity at 10 µM on DRAK1(h) (batch_name=ASAP-0010715-002), at ASK1(h) (batch_name=ASAP-0010715-002) and on CDK6/cyclinD3(h) (batch_name=ASAP-0010715-002) were 105%, 106% and 102%, respectively. On Lck kinase (h), the “perc_inhibition: % inhibition of control enzyme activity, Lck kinase (h)” value (“perc_inhibition: % inhibition” for short) was determined as 20%.

Consider `CC(C)[C@@H](Nc1ncnc2[nH]c(-c3cnn(C)c3C#N)cc12)c1ccc2c(n1)OCCO2` [ASAP-0010716], for which, in [1], the clint was 182.0 uL/min/1E6 cells. Besides, the t_half in [1] is recorded as 3.8 min. Moreover, the entries for the “perc_inhibition (% inhibition of the binding of a ligand specific for each target)” value on H1 (h), on KOR receptor and on beta1 (h) were 0%, 56% and -2%, respectively. The remaining activity at 10 µM is 108% at DRAK1(h) (batch_name=ASAP-0010716-002), 111% on PKCθ(h) (batch_name=ASAP-0010716-002) and 108% at ASK1(h) (batch_name=ASAP-0010716-002). In addition, the “perc_inhibition: % inhibition” value at Lck kinase (h) came to 34%.

In the case of `CNCc1cc(-c2cc3c(N[C@@H](c4ccc5c(c4)S(=O)(=O)CCC5)C(C)C)ncnc3[nH]2)co1` [ASAP-0011176], in data set [1], the clint came out at 15.6 uL/min/1E6 cells. The t_half in data set [1] worked out at 44.5 min. Further, the “perc_inhibition (% inhibition of the binding of a ligand specific for each target)” value was -3% at H1 (h), 57% on KOR receptor and -4% at beta1 (h). The remaining activity at 10 µM amounted to 86% at DRAK1(h) (batch_name=ASAP-0011176-002), 106% on PKCθ(h) (batch_name=ASAP-0011176-002) and 92% at CDK6/cyclinD3(h) (batch_name=ASAP-0011176-002). Moreover, the “perc_inhibition: % inhibition” value on Lck kinase (h) was 68%.

Turning to `Cn1ncc(-c2cc3c(N[C@@H](c4ccc5c(n4)OCCO5)C(C)(C)C)ncnc3[nH]2)c1C#N` [ASAP-0011221], in data set [1], the clint worked out at 185.0 uL/min/1E6 cells. The same compound registered a t_half in data set [1] of 3.76 min. Further, the “perc_inhibition (% inhibition of the binding of a ligand specific for each target)” value on H1 (h) stood at 7%; on KOR receptor, 33%; at beta1 (h), 11%. Further, the remaining activity at 10 µM was found to be 108% on DRAK1(h) (batch_name=ASAP-0011221-002), 96% on PKCθ(h) (batch_name=ASAP-0011221-002) and 108% at ASK1(h) (batch_name=ASAP-0011221-002). For the same compound, on Lck kinase (h), the “perc_inhibition: % inhibition” value was found to be 47%.

As to `COc1ccc([C@H](Cc2nnn[nH]2)NC(=O)c2ncnc3[nH]ccc23)cc1` [ASAP-0015381], the clint in data set [1] is less than 3.0 uL/min/1E6 cells. Moreover, the t_half in data set [1] is more than 231.0 min. Besides, the “perc_inhibition (% inhibition of the binding of a ligand specific for each target)” value at H1 (h) is -4%; at KOR receptor, 2%; on beta1 (h), -3%. Moreover, the results for the remaining activity at 10 µM at PKCθ(h) (batch_name=ASAP-0015381-001), on ASK1(h) (batch_name=ASAP-0015381-001) and on CDK6/cyclinD3(h) (batch_name=ASAP-0015381-001) were 91%, 103% and 102%, respectively. In addition, the “perc_inhibition: % inhibition” value at Lck kinase (h) worked out at 4%.
